This is an account of results in article PMC7160673, “A Degenerate Peptide Library Approach to Reveal Sequence Determinants of Methyllysine-Driven Protein Interactions” (Frontiers in Cell and Developmental Biology, 2020).

Where a SMILES comes first, the peptide text is derived from it. [ ]: non-standard residue; d: D form. The star is where a group is joined. 5FAM = O=C1OC2(c3ccc(O)cc3Oc3cc(O)ccc32)c2ccc(C(=O)*)cc21; Lys(Me3) = C[N+](C)(C)CCCC[C@H](N)C(=O)O

The assay deals with T1, CDYL2 chromo (Homo sapiens, UniProt Q8N8U2).
T1 construct: 1-75; made in house; host or cells: E. coli BL21
T1 sequence (Q8N8U2 1-75): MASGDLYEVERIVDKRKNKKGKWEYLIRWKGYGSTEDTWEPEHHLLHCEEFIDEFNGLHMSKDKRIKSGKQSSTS
The experiment in a line: Fluorescence polarization assay, CDYL2 chromo. It counts as binding. As to conditions: 10 nM N-terminal FAM peptide, 25 mM HEPES pH 7.5, 100 mM NaCl, 0.05% NP-40, average of 4 measurements from 2 independent experiments, error SD (Figure 4C). Here is the method:
Plasmids encoding N-terminal GST fusions of each reader domain (Supplementary Table S1) were transformed into BL21 E. coli and protein expression was induced with 0.5 mM IPTG at 16°C for 6–16 h. Induced bacterial pellets were suspended in 30 mL cold 1× PBS supplemented with 1 mM DTT and 1 mM PMSF. Next, bacteria were incubated with lysozyme (Thermo #89833 LOT#ta262343) and 1 μL of Pierce universal nuclease (Pierce #88702 LOT#00775219) on ice for 30 min followed by 3 rounds of sonication (30 s sonication with 10 s rest, all on ice) using a Qsonica ultrasonic processor (500 W 20 kHz with 1/8” microtip) at 40% amplitude. Lysed bacteria were centrifuged at 38465 rcf for 45 min at 4°C. Cleared supernatant was incubated with 5 mL of Glutathione resin (Thermo #16101 LOT#UD285112) with rotation at 4°C for 16 h. Bound protein was washed 3× with 10 mL cold 1× PBS and eluted twice with 10 mL of 25 mM HEPES pH 7.5, 10 mM L-glutathione (Sigma), and 100 mM NaCl. Protein was concentrated by centrifugation at 1,500 rpm on a Sorvall Legend X1 centrifuge in Amicon Ultra-15 centrifugal filter units (UFC#903024). Protein was resuspended in 25 mM HEPES pH 7.5 and 100 mM NaCl and concentrated by centrifugation as above three times. Protein was quantified by absorbance measurement at 280 nm divided by the computed extinction coefficient (ExPASy) ([Gasteiger et al., 2003]) of the GST-tagged protein domain.
Peptides functionalized with N-terminal 5-carboxyfluorescin (FAM) were synthesized by Genscript. All 7-mer motifs were synthesized with flanking glycines to mimic the Kme-OPL design. Binding assays were done in black 384 well plates (Corning #3575). […] Polarization was measured on a Synergy Neo fluorescence plate reader (Biotek) with a 485 ± 10 nm excitation filter and a 528 ± 10 nm emission filter. […] Anisotropy units (A) were calculated using the equation A = (2P)/(3-P). Dissociation constants were determined by non-linear regression analysis of anisotropy curves by specific binding with Hill slope in GraphPad version 8.3.0.
Background: Fluorescence polarisation rises when a labelled molecule tumbles more slowly, as on binding a larger partner.

As to `C[C@H](NC(=O)[C@H](CCCCN)NC(=O)CN)C(=O)N[C@@H](CCCCN)C(=O)N[C@@H](CCCC[N+](C)(C)C)C(=O)N[C@H](C(=O)NCC(=O)N[C@@H](CCCCN)C(=O)NCC(=O)O)[C@@H](C)O` [GKAK(Kme3)TGKG] (H-GKAK[Lys(Me3)]TGKG-OH), the Kd (commonly the free concentration of one partner at which half of the binding sites on the other are occupied at equilibrium, for simple one-to-one binding) was 3.6 ± 0.73 µM.

Turning to `C[C@H](NC(=O)[C@@H](NC(=O)CNC(=O)c1ccc2c(c1)C(=O)OC21c2ccc(O)cc2Oc2cc(O)ccc21)[C@@H](C)O)C(=O)N[C@@H](CCCNC(=N)N)C(=O)N[C@@H](CCCC[N+](C)(C)C)C(=O)N[C@@H](CO)C(=O)N[C@H](C(=O)NCC(=O)NCC(=O)O)[C@@H](C)O` [GTAR(Kme3)STGG] (5FAM-GTAR[Lys(Me3)]STGG-OH), the Kd is 18.4 ± 6 µM.

Turning to `C[C@H](NC(=O)[C@H](Cc1c[nH]c2ccccc12)NC(=O)CN)C(=O)N[C@@H](Cc1ccc(O)cc1)C(=O)N[C@@H](CCCC[N+](C)(C)C)C(=O)N[C@H](C(=O)NCC(=O)N[C@@H](CCCCN)C(=O)NCC(=O)O)[C@@H](C)O` [GWAY(Kme3)TGKG] (H-GWAY[Lys(Me3)]TGKG-OH), the Kd amounted to 0.1 ± 0.0066 µM.
